Key:
[1] = target: Alpha-1D adrenergic receptor (Homo sapiens) (UniProt P25100); settings: Compound concentration 10.0 uM
[2] = target: Muscarinic acetylcholine receptor M3 (Homo sapiens) (UniProt P20309); settings: Compound concentration 10.0 uM
[3] = target: Muscarinic acetylcholine receptor M2 (Homo sapiens) (UniProt P08172); settings: Compound concentration 10.0 uM
[4] = target: Muscarinic acetylcholine receptor M4 (Homo sapiens) (UniProt P08173); settings: Compound concentration 10.0 uM
[5] = target: Beta-2 adrenergic receptor (Homo sapiens) (UniProt P07550); settings: Compound concentration 10.0 uM
[6] = target: Muscarinic acetylcholine receptor M1 (Homo sapiens) (UniProt P11229); settings: Compound concentration 10.0 uM
[7] = target: 5-hydroxytryptamine receptor 6 (Homo sapiens) (UniProt P50406); settings: Compound concentration 10.0 uM
Sequence of 5-hydroxytryptamine receptor 6 (Homo sapiens) (P50406 whole entry): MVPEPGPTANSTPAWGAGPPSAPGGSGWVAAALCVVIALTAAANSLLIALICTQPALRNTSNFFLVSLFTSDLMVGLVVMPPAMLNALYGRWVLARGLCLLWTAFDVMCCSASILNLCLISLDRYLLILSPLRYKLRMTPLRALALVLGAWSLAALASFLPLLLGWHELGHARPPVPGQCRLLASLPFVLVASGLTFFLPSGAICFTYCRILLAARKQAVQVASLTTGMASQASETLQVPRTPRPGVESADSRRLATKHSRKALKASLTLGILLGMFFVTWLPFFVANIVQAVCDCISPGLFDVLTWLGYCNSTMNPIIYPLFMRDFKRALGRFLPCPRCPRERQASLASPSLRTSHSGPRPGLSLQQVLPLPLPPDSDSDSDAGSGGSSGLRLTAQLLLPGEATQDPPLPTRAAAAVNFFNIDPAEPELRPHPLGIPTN

[8] = target: 5-hydroxytryptamine receptor 2A (Homo sapiens) (UniProt P28223); settings: Compound concentration 10.0 uM
[9] = target: Delta-type opioid receptor (Homo sapiens) (UniProt P41143); settings: Compound concentration 10.0 uM
Sequence of Delta-type opioid receptor (Homo sapiens) (P41143 whole entry): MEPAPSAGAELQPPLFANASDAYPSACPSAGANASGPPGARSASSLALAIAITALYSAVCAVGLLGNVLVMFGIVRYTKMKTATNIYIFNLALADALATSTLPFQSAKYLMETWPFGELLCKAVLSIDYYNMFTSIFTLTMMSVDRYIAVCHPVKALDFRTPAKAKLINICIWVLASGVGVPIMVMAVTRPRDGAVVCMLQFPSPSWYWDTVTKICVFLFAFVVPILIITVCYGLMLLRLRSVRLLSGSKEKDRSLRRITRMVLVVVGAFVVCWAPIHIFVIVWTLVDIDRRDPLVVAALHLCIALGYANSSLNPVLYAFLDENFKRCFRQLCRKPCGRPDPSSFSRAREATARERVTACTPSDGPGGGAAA

[10] = target: Sodium-dependent noradrenaline transporter (Homo sapiens) (UniProt P23975); settings: Compound concentration 10.0 uM
Sequence of Sodium-dependent noradrenaline transporter (Homo sapiens) (P23975 whole entry): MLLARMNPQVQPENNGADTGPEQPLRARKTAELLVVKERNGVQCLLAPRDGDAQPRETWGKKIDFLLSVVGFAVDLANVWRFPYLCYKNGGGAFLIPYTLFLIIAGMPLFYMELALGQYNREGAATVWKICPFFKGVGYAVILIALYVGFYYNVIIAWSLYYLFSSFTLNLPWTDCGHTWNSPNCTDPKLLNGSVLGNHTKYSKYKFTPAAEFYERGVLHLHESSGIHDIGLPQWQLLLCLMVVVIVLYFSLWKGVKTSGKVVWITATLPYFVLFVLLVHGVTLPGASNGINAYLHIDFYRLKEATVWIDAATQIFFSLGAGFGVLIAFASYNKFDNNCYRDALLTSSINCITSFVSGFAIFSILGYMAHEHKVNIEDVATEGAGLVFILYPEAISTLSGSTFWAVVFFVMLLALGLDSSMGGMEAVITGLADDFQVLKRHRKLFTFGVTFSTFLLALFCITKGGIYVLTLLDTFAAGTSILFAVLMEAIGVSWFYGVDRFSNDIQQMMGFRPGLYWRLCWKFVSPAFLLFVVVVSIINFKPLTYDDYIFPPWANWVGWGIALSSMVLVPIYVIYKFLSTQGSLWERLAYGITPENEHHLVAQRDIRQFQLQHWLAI

[11] = target: T1, Sodium-dependent dopamine transporter (Homo sapiens, UniProt Q01959); settings: Compound concentration 10.0 uM
T1 sequence (Q01959 whole entry): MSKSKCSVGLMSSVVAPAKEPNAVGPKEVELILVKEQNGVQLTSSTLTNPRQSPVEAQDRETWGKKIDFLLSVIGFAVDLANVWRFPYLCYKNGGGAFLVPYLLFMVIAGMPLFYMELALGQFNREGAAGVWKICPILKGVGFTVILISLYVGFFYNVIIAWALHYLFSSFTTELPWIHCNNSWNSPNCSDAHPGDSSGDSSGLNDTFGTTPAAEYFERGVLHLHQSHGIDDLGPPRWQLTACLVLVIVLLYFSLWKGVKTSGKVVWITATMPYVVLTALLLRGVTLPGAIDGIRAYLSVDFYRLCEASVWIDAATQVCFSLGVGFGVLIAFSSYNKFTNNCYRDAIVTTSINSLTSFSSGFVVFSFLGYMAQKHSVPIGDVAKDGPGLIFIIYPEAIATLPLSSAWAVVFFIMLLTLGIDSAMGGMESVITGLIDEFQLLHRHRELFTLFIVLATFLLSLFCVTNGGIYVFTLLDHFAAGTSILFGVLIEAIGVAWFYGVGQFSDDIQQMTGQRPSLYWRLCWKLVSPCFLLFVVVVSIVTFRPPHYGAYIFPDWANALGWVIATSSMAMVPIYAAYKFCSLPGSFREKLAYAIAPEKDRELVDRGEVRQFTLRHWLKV

[12] = target: T2, GABA-A receptor; anion channel (Rattus norvegicus) (UniProt O09028+P15431+P18506+P18508+P19969+P20236+P23574+P23576+P28471+P28473+P30191+P62813+P63079+P63138+Q91ZM7+Q9ES14); settings: Compound concentration 10.0 uM
[13] = target: 5-hydroxytryptamine receptor 2B (Homo sapiens) (UniProt P41595); settings: Compound concentration 10.0 uM
[14] = target: D(2) dopamine receptor (Homo sapiens) (UniProt P14416); settings: Compound concentration 10.0 uM
[15] = target: 5-hydroxytryptamine receptor 1A (Homo sapiens) (UniProt P08908); settings: Compound concentration 10.0 uM
[16] = target: T3, D(4) dopamine receptor (Homo sapiens) (UniProt P21917); settings: Compound concentration 10.0 uM
T3 sequence (whole entry): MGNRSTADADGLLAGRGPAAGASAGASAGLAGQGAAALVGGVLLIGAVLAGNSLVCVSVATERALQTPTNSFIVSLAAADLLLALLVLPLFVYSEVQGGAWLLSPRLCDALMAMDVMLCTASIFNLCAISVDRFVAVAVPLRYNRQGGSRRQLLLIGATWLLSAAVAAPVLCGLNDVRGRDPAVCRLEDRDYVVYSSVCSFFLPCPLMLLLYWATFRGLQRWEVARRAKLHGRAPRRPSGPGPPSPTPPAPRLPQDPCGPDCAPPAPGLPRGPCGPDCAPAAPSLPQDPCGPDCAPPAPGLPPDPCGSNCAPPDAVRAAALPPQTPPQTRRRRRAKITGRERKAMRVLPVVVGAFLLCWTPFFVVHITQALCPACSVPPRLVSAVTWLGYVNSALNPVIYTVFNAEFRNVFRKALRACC

[17] = species: Rattus norvegicus; settings: Compound concentration 10.0 uM
[18] = target: T1, Sodium-dependent dopamine transporter; assay: GPCRScan assay: inhibition of DAT; design: radioligand conc. used [nm] 3.6 – 16.0, parental cells stable HEK
[19] = target: D(1A) dopamine receptor (Homo sapiens) (UniProt P21728); settings: Compound concentration 10.0 uM
[20] = target: Kappa-type opioid receptor (Homo sapiens) (UniProt P41145); settings: Compound concentration 10.0 uM
[21] = target: Histamine H3 receptor (Homo sapiens) (UniProt Q9Y5N1); settings: Compound concentration 10.0 uM
[22] = target: 5-hydroxytryptamine receptor 3A (Homo sapiens) (UniProt P46098); settings: Compound concentration 10.0 uM
[23] = target: T2, GABA-A receptor; anion channel (Rattus norvegicus); settings: Compound concentration 10.0 uM; remark: listed apart in the source
[24] = target: Mu-type opioid receptor (Homo sapiens) (UniProt P35372); settings: Compound concentration 10.0 uM
Sequence of Mu-type opioid receptor (Homo sapiens) (P35372 whole entry): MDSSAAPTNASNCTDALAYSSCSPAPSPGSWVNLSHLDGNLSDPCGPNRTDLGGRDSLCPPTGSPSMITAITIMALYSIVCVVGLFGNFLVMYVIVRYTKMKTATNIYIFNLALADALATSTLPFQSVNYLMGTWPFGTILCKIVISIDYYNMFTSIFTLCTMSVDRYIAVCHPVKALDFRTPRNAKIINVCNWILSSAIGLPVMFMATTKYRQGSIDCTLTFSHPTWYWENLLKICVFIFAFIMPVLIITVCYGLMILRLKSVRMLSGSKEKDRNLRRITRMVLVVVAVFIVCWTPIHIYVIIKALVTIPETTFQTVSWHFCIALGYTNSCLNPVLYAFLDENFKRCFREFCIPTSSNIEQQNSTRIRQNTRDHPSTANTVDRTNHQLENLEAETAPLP

[25] = target: Alpha-2C adrenergic receptor (Homo sapiens) (UniProt P18825); settings: Compound concentration 10.0 uM
[26] = target: Alpha-1B adrenergic receptor (Homo sapiens) (UniProt P35368); settings: Compound concentration 10.0 uM
[27] = target: 5-hydroxytryptamine receptor 2C (Homo sapiens) (UniProt P28335); settings: Compound concentration 10.0 uM
Sequence of 5-hydroxytryptamine receptor 2C (Homo sapiens) (P28335 whole entry): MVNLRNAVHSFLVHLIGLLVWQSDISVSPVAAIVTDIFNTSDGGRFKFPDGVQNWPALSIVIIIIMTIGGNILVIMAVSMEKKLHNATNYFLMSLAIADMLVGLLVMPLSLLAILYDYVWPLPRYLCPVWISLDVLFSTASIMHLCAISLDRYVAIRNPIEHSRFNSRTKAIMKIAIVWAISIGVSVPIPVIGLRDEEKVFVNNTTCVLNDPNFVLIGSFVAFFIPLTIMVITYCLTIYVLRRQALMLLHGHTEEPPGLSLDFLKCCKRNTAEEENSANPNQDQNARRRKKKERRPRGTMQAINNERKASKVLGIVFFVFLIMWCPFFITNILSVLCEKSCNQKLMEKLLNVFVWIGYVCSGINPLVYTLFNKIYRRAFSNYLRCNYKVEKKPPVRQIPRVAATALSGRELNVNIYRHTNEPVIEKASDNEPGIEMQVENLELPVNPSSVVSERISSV

[28] = target: Muscarinic acetylcholine receptor M5 (Homo sapiens) (UniProt P08912); settings: Compound concentration 10.0 uM
[29] = target: Sigma intracellular receptor 2 (Homo sapiens) (UniProt Q5BJF2); settings: Compound concentration 10.0 uM
Sequence of Sigma intracellular receptor 2 (Homo sapiens) (Q5BJF2 whole entry): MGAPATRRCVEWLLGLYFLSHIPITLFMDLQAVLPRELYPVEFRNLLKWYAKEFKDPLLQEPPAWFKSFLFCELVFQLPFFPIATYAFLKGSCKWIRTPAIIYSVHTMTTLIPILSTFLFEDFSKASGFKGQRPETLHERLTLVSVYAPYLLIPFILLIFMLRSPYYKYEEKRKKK

[30] = target: 5-hydroxytryptamine receptor 1E (Homo sapiens) (UniProt P28566); settings: Compound concentration 10.0 uM
[31] = target: Alpha-2A adrenergic receptor (Homo sapiens) (UniProt P08913); settings: Compound concentration 10.0 uM
[32] = target: Histamine H2 receptor (Homo sapiens) (UniProt P25021); settings: Compound concentration 10.0 uM
Sequence of Histamine H2 receptor (Homo sapiens) (P25021 whole entry): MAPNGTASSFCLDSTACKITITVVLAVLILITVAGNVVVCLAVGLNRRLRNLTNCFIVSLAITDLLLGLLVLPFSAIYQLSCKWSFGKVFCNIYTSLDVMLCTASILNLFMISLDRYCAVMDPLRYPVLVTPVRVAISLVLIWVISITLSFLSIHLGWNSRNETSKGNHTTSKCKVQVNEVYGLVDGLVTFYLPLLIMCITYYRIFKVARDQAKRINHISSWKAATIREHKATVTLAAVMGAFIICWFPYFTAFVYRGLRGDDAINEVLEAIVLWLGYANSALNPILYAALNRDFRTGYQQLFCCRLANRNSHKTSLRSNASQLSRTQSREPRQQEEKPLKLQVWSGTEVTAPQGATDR

[33] = target: 5-hydroxytryptamine receptor 7 (Homo sapiens) (UniProt P34969); settings: Compound concentration 10.0 uM
[34] = target: Sodium-dependent serotonin transporter (Homo sapiens) (UniProt P31645); settings: Compound concentration 10.0 uM
[35] = target: Histamine H1 receptor (Homo sapiens) (UniProt P35367); settings: Compound concentration 10.0 uM
Sequence of Histamine H1 receptor (Homo sapiens) (P35367 whole entry): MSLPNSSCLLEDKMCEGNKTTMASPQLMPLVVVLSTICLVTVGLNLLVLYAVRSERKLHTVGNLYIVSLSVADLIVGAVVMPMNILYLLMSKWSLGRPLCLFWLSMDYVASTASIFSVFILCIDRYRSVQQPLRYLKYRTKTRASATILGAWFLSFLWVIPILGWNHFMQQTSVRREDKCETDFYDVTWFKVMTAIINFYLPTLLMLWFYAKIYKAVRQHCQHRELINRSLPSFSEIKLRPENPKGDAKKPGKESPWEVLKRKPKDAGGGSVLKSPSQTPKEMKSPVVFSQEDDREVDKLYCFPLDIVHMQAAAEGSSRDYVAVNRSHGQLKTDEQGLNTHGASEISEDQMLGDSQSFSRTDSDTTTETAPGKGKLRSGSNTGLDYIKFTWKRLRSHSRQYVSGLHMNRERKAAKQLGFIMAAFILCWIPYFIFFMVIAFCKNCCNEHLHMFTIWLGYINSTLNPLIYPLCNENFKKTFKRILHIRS

[36] = target: Inhibitor of nuclear factor kappa-B kinase subunit beta (Homo sapiens, UniProt O14920); assay: Biochemical assay
[37] = target: Alpha-2B adrenergic receptor (Homo sapiens) (UniProt P18089); settings: Compound concentration 10.0 uM
[38] = target: 5-hydroxytryptamine receptor 1D (Homo sapiens) (UniProt P28221); settings: Compound concentration 10.0 uM
[39] = target: 5-hydroxytryptamine receptor 5A (Homo sapiens) (UniProt P47898); settings: Compound concentration 10.0 uM
[40] = target: Sigma non-opioid intracellular receptor 1 (Homo sapiens) (UniProt Q99720); settings: Compound concentration 10.0 uM
Sequence of Sigma non-opioid intracellular receptor 1 (Homo sapiens) (Q99720 whole entry): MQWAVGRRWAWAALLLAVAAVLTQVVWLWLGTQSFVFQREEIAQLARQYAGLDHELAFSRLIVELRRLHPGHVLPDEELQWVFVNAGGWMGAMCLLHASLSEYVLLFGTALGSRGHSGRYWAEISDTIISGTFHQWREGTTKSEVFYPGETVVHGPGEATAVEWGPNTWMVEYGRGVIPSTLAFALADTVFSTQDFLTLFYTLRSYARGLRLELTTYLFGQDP

[41] = target: Alpha-1A adrenergic receptor (Homo sapiens) (UniProt P35348); settings: Compound concentration 10.0 uM

Sequence of Alpha-1D adrenergic receptor (Homo sapiens) (P25100 whole entry): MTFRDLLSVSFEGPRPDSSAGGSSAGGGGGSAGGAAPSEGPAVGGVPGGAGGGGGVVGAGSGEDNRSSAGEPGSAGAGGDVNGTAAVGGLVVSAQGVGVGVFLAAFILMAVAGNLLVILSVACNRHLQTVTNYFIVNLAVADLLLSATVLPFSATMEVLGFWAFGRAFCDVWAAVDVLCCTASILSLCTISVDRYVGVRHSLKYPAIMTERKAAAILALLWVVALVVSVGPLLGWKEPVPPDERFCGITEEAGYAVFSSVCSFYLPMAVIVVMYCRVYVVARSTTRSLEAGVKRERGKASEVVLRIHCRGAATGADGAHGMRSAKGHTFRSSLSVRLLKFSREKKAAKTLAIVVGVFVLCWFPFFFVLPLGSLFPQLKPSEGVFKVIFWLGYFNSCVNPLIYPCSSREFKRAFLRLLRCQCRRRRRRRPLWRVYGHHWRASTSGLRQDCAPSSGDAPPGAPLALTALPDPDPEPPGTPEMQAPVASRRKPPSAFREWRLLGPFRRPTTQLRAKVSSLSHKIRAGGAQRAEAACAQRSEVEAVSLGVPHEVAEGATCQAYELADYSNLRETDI

CN(C)C(=O)c1sc2nc(N3CCC(S(C)(=O)=O)CC3)cc(C(F)(F)F)c2c1N [BI-5026]
inhibition [1]: 7.27% | inhibition [2]: 7.05% | inhibition [3]: 13.4% | inhibition [4]: 3.63% | inhibition [5]: 6.22% | inhibition [6]: 0.25% | inhibition [7]: 24.2% | inhibition [8]: -1.79% | inhibition [9]: 8.58% | inhibition [10]: 1.7% | inhibition [11]: 80.5% | inhibition [12]: 3.61% | inhibition [13]: 47.5% | inhibition [14]: 1.12% | inhibition [15]: 40.6% | inhibition [16]: 4.15% | inhibition [17]: 27.9% | Ki ([18]; read-out: Ki): 4.27 µM | Ki ([18]; read-out: pKi (converted)): 4.27 µM | inhibition [19]: 1.22% | inhibition [20]: 9.53% | inhibition [21]: -1.1% | inhibition [22]: 10.3% | inhibition [23]: 13.5% | inhibition [24]: 22.4% | inhibition [25]: 2.96% | inhibition [26]: -7.86% | inhibition [27]: 11.6% | inhibition [28]: -6.93% | inhibition [29]: 70.6% | inhibition [30]: 2.45% | inhibition [31]: 13% | inhibition [32]: -1.35% | inhibition [33]: 2.32% | inhibition [34]: 18.1% | inhibition [35]: 24.5% | IC50 [36]: > 10 µM (not active) | inhibition [37]: 3.36% | inhibition [38]: 6.7% | inhibition [39]: 5.35% | inhibition [40]: 31.5% | inhibition [41]: 22.8%

From ChEMBL document CHEMBL4800722, “Data for DCP probe BI 605906” (2021)
